Test results: patent US10231985B2, “Compounds and compositions comprising such compounds for the prevention or treatment of dyslipidaemias” (CENTRE NATIONAL DE LA RECHERCHE SCIENTIFIQUE, priority 2013, dated 2019)

Tests used:
[1] = tested on: BRIN-BD11 pancreatic β-cells; assay: Cell viability of palmitic acid-lipointoxicated pancreatic β-cells (propidium iodide, flow cytometry); assay type: cell-based, rat; conditions: BRIN-BD11, 200 μM palmitic acid
Experimental: (§1) Pancreatic β-cells, BRIN-BD11, were grown under control conditions or in the presence of an exogenous source of saturated fatty acid (200 μM palmitic acid), as described by Dhayal & Morgan (2011), in order to generate lipointoxication conditions, with or without the addition of OAG. A) The proportion of dead cells was estimated in the absence (control) or presence of palmitic acid, for increasing concentrations of OAG. B) eIF2α phosphorylation levels were also analyzed under the various conditions by Western blot, in the presence or absence (Ø) of OAG, and were normalized to total eIF2α.
The lipid species are prepared in ethanol before being complexed with bovine serum albumin (BSA, first depleted of fatty acids) by incubation for 1 hour at 37° C. The palmitic acid stock solution is obtained by adding one volume of ethanol before the whole is heated to 70° C. for homogenization. OAG and LPA solutions are prepared in 100% ethanol at room temperature. For the incubations of mammalian cells, the final BSA and ethanol concentrations in the culture medium are kept at 1% and 0.5% (w/v), respectively.
The rat pancreatic β-cell line (BRIN-BD11) is grown in complete RPMI-1640 medium, containing 11 mM glucose and supplemented with 10% (v/v) fetal calf serum (FCS), 2 mM L-glutamine, 100 U/ml penicillin and 100 μg/ml streptomycin. For each experiment, the cells are first seeded at a density of 0.5×10^5 cells/ml in 6-well plates for 24 hours. Thereafter, the complete medium is replaced by an equivalent lacking FCS but containing the lipid reagents of interest, at the desired concentrations, complexed with BSA. Under the control conditions, identical amounts of BSA and ethanol are then used. […] After incubation on ice for 10 minutes, the samples thus obtained are analyzed by flow cytometry. A Beckman Coulter EPICS XL MCL is used for the quantification, an FL3 channel is used to detect the emissions of the PI intercalated in the DNA, and the analysis is carried out using the EXPO32 ADC software (Applied Cytometry Systems, V 1.1 build 207).

lipase = assay: Resistance to hydrolytic activity of lipases (thin-layer chromatography); assay type: in vitro ADME; conditions: 10 U of lipase, 30 minutes, 37° C.
Experimental: OAG (15 μmol) and N,N-diethanololeamide were subjected (+) or not (−) to exposure to 10 U of lipase for 30 minutes at 37° C. Following the incubation, the lipid species were extracted from the samples before being separated by thin-layer chromatography.

[2] = tested on: eIF2α phosphorylation (UPR); assay: eIF2α phosphorylation by Western blot in lipointoxicated β-cells; assay type: cell-based, rat; conditions: BRIN-BD11, 200 μM palmitic acid
Experimental: as §1
BRIN-BD11 cells are seeded at a density of 0.5×10^5 cells/ml in T25 flasks for 24 hours. As indicated above, the complete medium is then replaced by an equivalent lacking FCS but containing the lipid reagents of interest. After 6 hours of incubation, total protein is extracted using lysis buffer (20 mM Tris, 150 mM NaCl, 1 mM EDTA and 1% (v/v) Triton-X) containing protease and phosphatase inhibitors. […] The densitometric analysis of the relative abundance of phosphorylated or non-phosphorylated forms of eIF2α protein is carried out with the Fluor-S Multilmager analysis system combined with the Quantity One software (Bio-Rad UK Ltd).

SMILES: CCCCCCCC/C=C\CCCCCCCC(=O)OC[C@H](CO)OC(C)=O [OAG, 1-oleoyl-2-acetyl-sn-glycerol]
- Apoptosis / proportion of dead cells of pancreatic β-cells [1]: prevents apoptosis
- Hydrolysis by lipases (lipase): unlike OAG
- eIF2α phosphorylation level normalized to total eIF2α (UPR intensity) [2]: reduces the UPR
